Data from publication PMC7201532, “The role of Piper chaba Hunt. and its pure compound, piperine, on TRPV1 activation and adjuvant effect” (BMC Complementary Medicine and Therapies, 2020).

Target: TRPV1 (Homo sapiens, UniProt Q8NER1)
Test: Fluo-4 calcium imaging in HEK293 cells stably expressing human TRPV1; no effect in control T-REx HEK293 cells; blocked by AMG9810
Format: cell-based

TRPV1, sequence (Q8NER1 whole entry): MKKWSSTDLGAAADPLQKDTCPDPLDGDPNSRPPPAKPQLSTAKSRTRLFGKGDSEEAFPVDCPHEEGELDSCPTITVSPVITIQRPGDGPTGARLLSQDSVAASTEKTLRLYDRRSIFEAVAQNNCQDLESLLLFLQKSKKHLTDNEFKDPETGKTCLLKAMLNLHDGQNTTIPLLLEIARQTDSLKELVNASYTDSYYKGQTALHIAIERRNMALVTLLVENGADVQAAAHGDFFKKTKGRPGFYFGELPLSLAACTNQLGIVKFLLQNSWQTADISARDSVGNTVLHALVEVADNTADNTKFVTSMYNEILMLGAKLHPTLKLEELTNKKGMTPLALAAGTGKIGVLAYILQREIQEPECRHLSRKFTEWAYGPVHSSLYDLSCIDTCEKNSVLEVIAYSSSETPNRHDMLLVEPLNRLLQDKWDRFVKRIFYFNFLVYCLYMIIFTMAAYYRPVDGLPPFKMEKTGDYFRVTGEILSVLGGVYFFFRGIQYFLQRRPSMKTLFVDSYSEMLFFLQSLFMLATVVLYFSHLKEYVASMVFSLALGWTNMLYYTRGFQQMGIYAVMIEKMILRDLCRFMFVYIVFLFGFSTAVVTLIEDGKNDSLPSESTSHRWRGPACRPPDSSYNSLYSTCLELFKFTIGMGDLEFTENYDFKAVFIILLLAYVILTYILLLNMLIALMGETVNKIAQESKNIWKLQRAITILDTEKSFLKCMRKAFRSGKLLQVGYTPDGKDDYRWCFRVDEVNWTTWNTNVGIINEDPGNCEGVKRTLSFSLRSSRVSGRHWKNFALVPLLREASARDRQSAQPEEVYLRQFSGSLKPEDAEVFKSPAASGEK

O=C(/C=C/C=C/c1ccc2c(c1)OCO2)N1CCCCC1 [Piperine]
EC50: 1080 nM
